Results on 10 compounds are retold here after ChEMBL document CHEMBL5338722, “Optical-Controlled Kinetic Switch: Fine-Tuning of the Residence Time of an Antagonist Binding to the Vasopressin V2 Receptor in In Vitro, Ex Vivo, and In Vivo Models of ADPKD” (J Med Chem, 2023).

Data set [1] has as its target T1, Vasopressin V2 receptor (Homo sapiens, UniProt P30518). Description: Displacement of conivaptan-red fluorescent probe from SNAP-tagged human vasopressin V2 receptor expressed in HEK293 cells compound pre-illuminated for 10 mins with light at 365 nm and further incubated for 1 hr by HTRF assay. It counts as cell-based.
Data set [2] concerns the target T1, Vasopressin V2 receptor. As to the kind of experiment: Displacement of conivaptan-red fluorescent probe from SNAP-tagged human vasopressin V2 receptor expressed in HEK293 cells compound pre-illuminated for 10 mins with light at 435 nm and further incubated for 1 hr by HTRF assay. It is filed as cell-based. In general terms: In TR-FRET formats the signal depends on donor and acceptor labels being close together.

Data set [3] has as its target T1, Vasopressin V2 receptor. Description: Displacement of conivaptan-red fluorescent probe from SNAP-tagged human vasopressin V2 receptor expressed in HEK293 cells at 10 uM compound pre-illuminated for 10 mins with light at 435 nm and further incubated for 1 hr by HTRF assay relative to control. It is filed as cell-based.
Data set [4] deals with T1, Vasopressin V2 receptor. Description: Displacement of conivaptan-red fluorescent probe from SNAP-tagged human vasopressin V2 receptor expressed in HEK293 cells assessed as on-rate constant at 1 uM compound pre-illuminated for 10 mins with light at 435 nm by dual-point competition association assay. The note with it: filed as antagonist. It is filed as cell-based.
In data set [5] the test system is Mus musculus. As to the kind of experiment: In vivo inhibition of renal cystogenesis in Pkd1 knock-out autosomal dominant polycystic kidney disease mouse model assessed as reduction in kidney size at 5 mg/kg, sc administered once daily for 7 days compound pre-irradiated with light at 435 nm prior to administration. It counts as functional, organism-based. As to conditions: time 7.0 day.

Data set [6] deals with T1, Vasopressin V2 receptor. Description: Antagonist activity at human vasopressin V2 receptor expressed in CHO cells assessed as inhibition of vasopressin induced cAMP production at 10 times Ki preincubated for 30 mins followed by two consecutive washouts and irradiated with light at 365 nm during two washouts. It is filed as functional, cell-based. As to conditions: filed as antagonist. (In general: cAMP levels reflect the balance of adenylyl cyclase and phosphodiesterase activity.)

For data set [7], the target named is T1, Vasopressin V2 receptor. As to the kind of experiment: Displacement of conivaptan-red fluorescent probe from SNAP-tagged human vasopressin V2 receptor expressed in HEK293 cells assessed as off-rate constant at 1 uM compound pre-illuminated for 10 mins with light at 435 nm by dual-point competition association assay. It is filed as cell-based. The note with it: filed as antagonist.

Data set [8] concerns the target T1, Vasopressin V2 receptor. As to the kind of experiment: Displacement of conivaptan-red fluorescent probe from SNAP-tagged human vasopressin V2 receptor expressed in HEK293 cells assessed as residence time at 1 uM compound pre-illuminated for 10 mins with light at 435 nm by dual-point competition association assay. It is filed as cell-based. The note with it: filed as antagonist.

Data set [9] has as its target T1, Vasopressin V2 receptor. As to the kind of experiment: Displacement of conivaptan-red fluorescent probe from SNAP-tagged human vasopressin V2 receptor expressed in HEK293 cells assessed as kinetic rate index by measuring ratio of binding of labeled probe at 15 mins to 60 mins at IC50 compound pre-illuminated for 10 mins with light at 435 nm by dual-point competition association assay. The note with it: filed as antagonist. It is filed as cell-based.

In data set [10] the target is T1, Vasopressin V2 receptor. Description: Antagonist activity at human vasopressin V2 receptor expressed in CHO cells assessed as inhibition of AVP-induced cAMP production at 1 uM preincubated for 30 mins followed by two consecutive washouts and irradiated with light at 365 nm during two washouts. It is filed as functional, cell-based. As to conditions: filed as antagonist.

The nature of data set [11]: Drug uptake in Sprague-Dawley rat kidney at 0.1 uM treated for 30 mins followed by extensive drug wash-out for 4 hrs by LC-MS analysis. The note with it: in vivo, 0.5 h. It is filed as ADME, tissue-based.
Data set [12] has as its system Kidney. Description: Ex vivo inhibition of renal cystogenesis in ADPKD C57BL/6 mouse kidney assessed as suppression of 8-Br-cAMP-induced cyst development at 10 uM measured after 4 days in presence of 8-Br-cAMP by inverted microscopic analysis. It is filed as functional, tissue-based. The note with it: time 4.0 day.
A short description of data set [13]: In vivo inhibition of renal cystogenesis in Pkd1 knock-out autosomal dominant polycystic kidney disease mouse model assessed as disease progression at 5 mg/kg, sc administered once daily for 7 days compound pre-irradiated with light at 435 nm prior to administration. It counts as functional. On the set-up: scale not given: the % may be the effect or the level left. The note with it: time 7 day.

The target of data set [14] is Vasopressin V1a receptor (Homo sapiens) (UniProt P37288). Description: Displacement of [3H]vasopressin from human V1A receptor expressed in CHO cell membranes at 1 uM compound pre-illuminated for 10 mins with light at 435 nm by radioligand displacement assay relative to control. The note with it: Membrane. (In general: Loss of bound radioactivity is the signal in a displacement assay; it reports binding, not function.)
Sequence of Vasopressin V1a receptor (Homo sapiens) (P37288 whole entry, looked up): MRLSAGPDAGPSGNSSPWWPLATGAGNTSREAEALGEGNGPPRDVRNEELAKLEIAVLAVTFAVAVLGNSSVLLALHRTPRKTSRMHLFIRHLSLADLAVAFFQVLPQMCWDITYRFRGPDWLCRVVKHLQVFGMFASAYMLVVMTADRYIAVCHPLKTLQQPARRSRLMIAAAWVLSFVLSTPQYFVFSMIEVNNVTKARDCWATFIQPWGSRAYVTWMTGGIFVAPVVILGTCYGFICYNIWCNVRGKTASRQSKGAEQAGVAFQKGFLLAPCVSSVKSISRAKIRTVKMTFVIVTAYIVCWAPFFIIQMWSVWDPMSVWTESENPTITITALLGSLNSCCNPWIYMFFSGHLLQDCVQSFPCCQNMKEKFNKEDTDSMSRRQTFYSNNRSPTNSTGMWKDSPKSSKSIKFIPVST

Data set [15] has as its system Kidney. Description: Ex vivo target occupancy at vasopressin V2 receptor in Sprague-Dawley rat kidney assessed as endurance in retention time by measuring half life at 0.1 uM treated for 30 mins followed by extensive drug wash-out for 240 mins by LC-MS analysis. It counts as functional, tissue-based.

The structures appear in SMILES notation. Active and inactive are the calls of the source. No cut-off for these calls is given here. Some results are limits rather than exact numbers.

T1 sequence (P30518 whole entry): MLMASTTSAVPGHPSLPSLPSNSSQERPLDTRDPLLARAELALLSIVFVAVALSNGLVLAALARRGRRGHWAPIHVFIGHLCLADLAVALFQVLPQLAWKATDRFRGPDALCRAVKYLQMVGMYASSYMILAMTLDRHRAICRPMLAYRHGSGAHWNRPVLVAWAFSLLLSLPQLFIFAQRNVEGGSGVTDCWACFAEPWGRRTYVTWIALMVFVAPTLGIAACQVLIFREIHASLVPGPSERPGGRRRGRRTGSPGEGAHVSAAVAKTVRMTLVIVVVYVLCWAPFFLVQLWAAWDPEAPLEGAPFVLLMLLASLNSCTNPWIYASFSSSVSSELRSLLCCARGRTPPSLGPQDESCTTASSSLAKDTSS

Consider `Cc1ccc(F)cc1/N=N\c1ccc(C(=O)N2Cc3cccn3Cc3ccccc32)c(Cl)c1`, for which, in [1], the Ki turned out to be 1.7 µM.

In the case of `Cc1ccccc1/N=N\c1ccc(C(=O)N2Cc3cccn3Cc3ccccc32)c(Cl)c1`, the affinity in data set [1] corresponds to a Ki of 1.24 µM.

For `O=C(c1ccc(/N=N/c2ccccc2)cc1Cl)N1Cc2cccn2Cc2ccccc21`, affinity in data set [2] was put at a Ki of 0.289 µM.

On to `O=C(c1ccc(/N=N/c2ccc(-c3ccccc3)cc2)cc1Cl)N1Cc2cccn2Cc2ccccc21`, for which, in [3], the inhibition is 33%.

As for `Cc1ccc(/N=N/c2ccc(C(=O)N3Cc4cccn4Cc4ccccc43)c(Cl)c2)cc1`, the K in [4] is 1.1 10^5/M/min; in data set [7], 0.068 min⁻¹. Besides, the inhibition result in data set [5], in data set [6], in [10] and in data set [12] was “Active” each time. Also, the TIME in [8] came to 0.25 h. Besides, in data set [2], affinity was put at a Ki of 0.281 µM. Moreover, the Ratio in data set [9] worked out at 0.95. Further, in [11], the Drug uptake amounted to 10 nM. For the same compound, in data set [13], the Activity is on record as 18.2%. Also, the inhibition in data set [14] was below 40%. Besides, the T1/2 in data set [15] worked out at 29 min.

Take `Cc1cccc(/N=N\c2ccc(C(=O)N3Cc4cccn4Cc4ccccc43)c(Cl)c2)c1`: affinity in [1] was put at a Ki of 0.134 µM.

In data set [1], `O=C(c1ccc(/N=N\c2cccc(-c3ccccc3)c2)cc1Cl)N1Cc2cccn2Cc2ccccc21` had a Ki of 0.663 µM.

With `O=C(c1ccc(/N=N/c2cccc(-c3ccccc3)c2)cc1Cl)N1Cc2cccn2Cc2ccccc21`, the Ki in data set [2] was determined as 2.18 µM.

On to `O=C(c1ccc(/N=N\c2ccccc2)cc1Cl)N1Cc2cccn2Cc2ccccc21`, for which the affinity in data set [1] corresponds to a Ki of 0.093 µM.

Consider `O=C(c1ccc(/N=N\c2ccccc2-c2ccccc2)cc1Cl)N1Cc2cccn2Cc2ccccc21`, for which affinity in data set [1] was put at a Ki of 0.787 µM.

For orientation: Ki means the equilibrium dissociation constant of an inhibitor or competing ligand from its target. Broadly, the inhibition is how much of the control response was suppressed.
